Laboratory results published in patent US8753875B2, “Compositions and means for diagnosing microbial infections” (priority 2007, dated 2014).
Like-named read-outs stand apart in the source and are kept apart here.

Columns and labels:
S. agalactiae = system: S. agalactiae; design: key: Susceptible = S; Resistant = R; settings: cited from earlier work
Klebsiella = settings: cited from earlier work
Enterobacter = settings: cited from earlier work
[1] = system: Staphylococcus saprophyticus ATCC 49907; settings: 32 mg/l nitrofurantoin; 10^5 CFU/ml suspension, 18-24 hours at 37° C.
S. saprophyticus [2] = system: S. saprophyticus; design: key: Susceptible = S; Resistant = R; settings: cited from earlier work
E. coli [3] = assay: Growth of E. coli in antibiotic compartments of the platform (FIG. 3); assay type: cell-based; settings: illustrated E. coli of FIG. 3
Text: The photos show growth of E. coli at different quantities of bacteria/ml urine.

P. vulgaris [4] = system: P. vulgaris; design: key: Susceptible = S; Resistant = R; settings: cited from earlier work
E. coli [5] = settings: cited from earlier work
Pseud. Aeruginosa = system: Pseud. Aeruginosa; design: key: Susceptible = S; Resistant = R; settings: cited from earlier work
S. saprophyticus [6] = assay: Growth on Flexicult plate, susceptibility/resistance to the five antibiotics (FIG. 4, Table A); assay type: cell-based
Text: (§1) The kit was developed for urine culture in the primary health care setting. It is designed preferably as a nine cm Petri dish divided into six compartments: One larger compartment for quantitative analysis and five smaller compartments for susceptibility testing. The agar in each small compartment contains one of five antimicrobials (for Denmark and Scandinavia preferably: trimethoprim, sulfamethizole, ampicillin, nitrofurantoin and mecillinam (amdinocillin)) at a concentration adjusted to the breakpoint, such that growth in these compartments indicates resistance, and no growth indicates susceptibility. The Petri dish preferably has higher sides, approximately 2.48 cm, than the usual dish, i.e. ca. 1.48 cm. This allows a larger amount, maximum 100 ml, of urine to be poured onto the dish for inoculation.
(§2) Reading the susceptibility of the bacterial growth: Each bacterium (if more than one) is read individually: The growth in each of the antibiotic fields is compared with the growth on the control agar. […] If there is no growth (or substantially less than the control agar), then the bacterium is considered to be susceptible to the antibiotic. […] When nitrofurantoin and mecillinam are used as antibiotics, a few single colonies may be seen of the same type as the bacterium on the control agar: These are not considered to be resistant mutants but “persisters,” i.e. if retested they will appear susceptible. This is commonly seen also by disc diffusion especially for mecillinam.

Morganella spp. = assay: as above; assay type: cell-based
Text: as §1, §2

E. faecium [7] = assay: as above; assay type: cell-based
Text: as §1, §2

P. vulgaris [8] = assay: as above; assay type: cell-based
Text: as §1, §2

Citrobacter spp. = assay: as above; assay type: cell-based
Text: as §1, §2

E. faecalis [9] = assay: as above; assay type: cell-based
Text: as §1, §2

Klebsiella spp. = assay: as above; assay type: cell-based
Text: as §1, §2

E. coli [10] = assay: as above; assay type: cell-based
Text: as §1, §2

P. aureginosa = assay: as above; assay type: cell-based
Text: as §1, §2

Enterobacter spp = assay: as above; assay type: cell-based
Text: as §1, §2

Proteus mirabilis = assay: as above; assay type: cell-based
Text: as §1, §2

Candida spp. = assay: as above; assay type: cell-based
Text: as §1, §2

E. coli [11] = system: E. coli; design: key: Susceptible = S; Resistant = R; settings: cited from earlier work
P. mirabilis = settings: cited from earlier work
E. coli [12] = settings: 1142 E. coli outpatient urinary isolates, USA and Canada; cited from earlier work
Candida sp. = system: Candida sp.; design: key: Susceptible = S; Resistant = R; settings: cited from earlier work
E. faecium [13] = system: E. faecium; design: key: Susceptible = S; Resistant = R; settings: cited from earlier work
Citrobacter = system: Citrobacter; design: key: Susceptible = S; Resistant = R; settings: cited from earlier work
Morganella = system: Morganella; design: key: Susceptible = S; Resistant = R; settings: cited from earlier work
E. faecalis [14] = system: E. faecalis; design: key: Susceptible = S; Resistant = R; settings: cited from earlier work

For `O=C1CN(N=Cc2ccc([N+](=O)[O-])o2)C(=O)N1` [Nitrofurantoin, 1-[(5-nitro-2-furyl)methylideneamino]imidazolidine-2,4-dione], the Normal susceptibility/resistance (S. agalactiae) is listed as “S”, the Normal susceptibility/resistance (Klebsiella) is listed as “S/R” and the Normal susceptibility/resistance (Enterobacter) is listed as “S/R”. The “reduction in the growth of/numbers of colonies formed” value [1] was “at least 4 log CFU/ml”, the Normal susceptibility/resistance (S. saprophyticus [2]) was “S” and the “resistant or susceptible (growth in antibiotic compartment)” value (E. coli [3]) was “susceptible”. The Normal susceptibility/resistance (P. vulgaris [4]) was “R”, the “Antimicrobial resistance of E. coli (resistance in percent)” value (E. coli [5]; Austria, n 126) was 0.8% and the “Antimicrobial resistance of E. coli (resistance in percent)” value (E. coli [5]; Belgium, n 137) was 0.7%. For the same compound, the “Antimicrobial resistance of E. coli (resistance in percent)” value (E. coli [5]; Canada, n 166) was 1.2%, the “Antimicrobial resistance of E. coli (resistance in percent)” value (E. coli [5]; Denmark, n 85) was 1.2% and the “Antimicrobial resistance of E. coli (resistance in percent)” value (E. coli [5]; Finland, n 182) was 0.5%. For the same compound, the “Antimicrobial resistance of E. coli (resistance in percent)” value (E. coli [5]; France, n 199) was 1.0%, the “Antimicrobial resistance of E. coli (resistance in percent)” value (E. coli [5]; Germany, n 138) was 0.7% and the “Antimicrobial resistance of E. coli (resistance in percent)” value (E. coli [5]; Greece, n 132) was 3.0%. The “Antimicrobial resistance of E. coli (resistance in percent)” value (E. coli [5]; Ireland, n 154) was 0%, the “Antimicrobial resistance of E. coli (resistance in percent)” value (E. coli [5]; Luxembourg, n 24) was 4.2% and the “Antimicrobial resistance of E. coli (resistance in percent)” value (E. coli [5]; Norway, n 168) was 0%. The “Antimicrobial resistance of E. coli (resistance in percent)” value (E. coli [5]; Portugal, n 86) was 5.8%, the “Antimicrobial resistance of E. coli (resistance in percent)” value (E. coli [5]; Spain, n 191) was 4.2% and the “Antimicrobial resistance of E. coli (resistance in percent)” value (E. coli [5]; Sweden, n 193) was 0%. The “Antimicrobial resistance of E. coli (resistance in percent)” value (E. coli [5]; Switzerland, n 122) was 0.8%, the “Antimicrobial resistance of E. coli (resistance in percent)” value (E. coli [5]; The Netherlands, n 195) was 1.0% and the “Antimicrobial resistance of E. coli (resistance in percent)” value (E. coli [5]; Total, n 2478) was 1.2%. For the same compound, the “Antimicrobial resistance of E. coli (resistance in percent)” value (E. coli [5]; United Kingdom, n 180) was 0%, the Normal susceptibility/resistance (Pseud. Aeruginosa) was “R” and the “Susceptibility = S or Resistance = R” value (S. saprophyticus [6]) was “S”. For the same compound, the “Susceptibility = S or Resistance = R” value (Morganella spp.) was “R/S”, the “Susceptibility = S or Resistance = R” value (E. faecium [7]) was “R” and the “Susceptibility = S or Resistance = R” value (P. vulgaris [8]) was “R/S”. For the same compound, the “Susceptibility = S or Resistance = R” value (Citrobacter spp.) was “S”, the “Susceptibility = S or Resistance = R” value (E. faecalis [9]) was “R” and the “Susceptibility = S or Resistance = R” value (Klebsiella spp.) was “R”. The “Susceptibility = S or Resistance = R” value (E. coli [10]) was “S”, the “Susceptibility = S or Resistance = R” value (P. aureginosa) was “R” and the “Susceptibility = S or Resistance = R” value (Enterobacter spp) was “S”. For the same compound, the “Susceptibility = S or Resistance = R” value (Proteus mirabilis) was “S”, the “Susceptibility = S or Resistance = R” value (Candida spp.) was “R” and the Normal susceptibility/resistance (E. coli [11]) was “S”. The Normal susceptibility/resistance (P. mirabilis) was “S/R”, the “Overall resistance in E. coli” value (E. coli [12]) was 1.1% and the Normal susceptibility/resistance (Candida sp.) was “R”. For the same compound, the Normal susceptibility/resistance (E. faecium [13]) was “S”, the Normal susceptibility/resistance (Citrobacter) was “S” and the Normal susceptibility/resistance (Morganella) was “R”. For the same compound, the Normal susceptibility/resistance (E. faecalis [14]) was “S”.
